From article PMC7265341, “Quantifying CDK inhibitor selectivity in live cells” (Nature Communications, 2020)
Read-outs that look alike come from different tables or passages of the source.

Tests used:
[1] = biological target: T1, CDK11A/Cyclin L2 (Homo sapiens, UniProt Q9UQ88); assay: NanoBRET live-cell target engagement, CDK11A-NanoLuc/Cyclin L2 in HEK-293; type: binding; conditions: CDK11a/L2
T1 sequence (Q9UQ88 1-783): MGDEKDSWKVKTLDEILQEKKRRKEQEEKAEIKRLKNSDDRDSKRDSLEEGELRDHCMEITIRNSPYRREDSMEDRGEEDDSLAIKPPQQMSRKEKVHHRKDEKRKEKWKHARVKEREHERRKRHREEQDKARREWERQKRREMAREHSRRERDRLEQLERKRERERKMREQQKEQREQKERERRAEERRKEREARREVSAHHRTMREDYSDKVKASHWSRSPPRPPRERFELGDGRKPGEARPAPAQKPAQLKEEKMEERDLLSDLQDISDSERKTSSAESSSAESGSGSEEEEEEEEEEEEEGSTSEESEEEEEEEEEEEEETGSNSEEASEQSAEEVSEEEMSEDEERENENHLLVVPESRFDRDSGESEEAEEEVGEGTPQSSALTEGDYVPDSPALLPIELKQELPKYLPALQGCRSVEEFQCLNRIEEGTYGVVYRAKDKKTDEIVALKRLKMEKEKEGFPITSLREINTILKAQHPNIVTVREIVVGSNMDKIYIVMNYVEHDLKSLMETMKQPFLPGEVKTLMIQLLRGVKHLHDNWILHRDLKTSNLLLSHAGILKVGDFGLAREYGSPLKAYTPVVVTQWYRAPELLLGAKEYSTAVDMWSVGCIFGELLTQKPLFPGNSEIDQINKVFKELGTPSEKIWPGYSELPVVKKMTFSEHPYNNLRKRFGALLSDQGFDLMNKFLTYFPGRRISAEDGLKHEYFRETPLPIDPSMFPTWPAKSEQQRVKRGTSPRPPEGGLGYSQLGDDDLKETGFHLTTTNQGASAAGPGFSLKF

[2] = biological target: CDK9/Cyclin K (Homo sapiens, UniProt P50750); assay: NanoBRET live-cell target engagement, NanoLuc-CDK9/Cyclin K in HEK-293; type: binding; conditions: CDK9/K
[3] = biological target: CDK11B/Cyclin L2 (Homo sapiens, UniProt P21127); assay: NanoBRET live-cell target engagement, CDK11B-NanoLuc/Cyclin L2 in HEK-293; type: binding; conditions: CDK11b/L2
[4] = biological target: CDK8/Cyclin C (Homo sapiens, UniProt P49336); assay: NanoBRET live-cell target engagement, NanoLuc-CDK8/Cyclin C in HEK-293; type: binding; conditions: CDK8/C
[5] = biological target: CDK17/Cyclin Y (Homo sapiens, UniProt Q00537); assay: NanoBRET live-cell target engagement, CDK17-NanoLuc/Cyclin Y in HEK-293; type: binding; conditions: CDK17/Y
[6] = biological target: CDK3/Cyclin E1 (Homo sapiens, UniProt Q00526); assay: NanoBRET live-cell target engagement, CDK3-NanoLuc/Cyclin E1 in HEK-293; type: binding; conditions: CDK3/E1
[7] = biological target: CDK7 (Homo sapiens, UniProt P50613); assay: NanoBRET live-cell target engagement, NanoLuc-CDK7 in HEK-293; type: binding; conditions: CDK7
[8] = biological target: CDK15/Cyclin Y (Homo sapiens, UniProt Q96Q40); assay: NanoBRET live-cell target engagement, NanoLuc-CDK15/Cyclin Y in HEK-293; type: binding; conditions: CDK15/Y
[9] = biological target: CDK20/Cyclin H (Homo sapiens, UniProt Q8IZL9); assay: NanoBRET live-cell target engagement, NanoLuc-CDK20/Cyclin H in HEK-293; type: binding; conditions: CDK20/H
[10] = biological target: CDK12/Cyclin K (Homo sapiens, UniProt Q9NYV4); assay: NanoBRET live-cell target engagement, CDK12-NanoLuc/Cyclin K in HEK-293; type: binding; conditions: CDK12/K
[11] = biological target: CDK13/Cyclin K (Homo sapiens, UniProt Q14004); assay: NanoBRET live-cell target engagement, CDK13-NanoLuc/Cyclin K in HEK-293; type: binding; conditions: CDK13/K
[12] = biological target: CDK18/Cyclin Y (Homo sapiens, UniProt Q07002); assay: NanoBRET live-cell target engagement, CDK18-NanoLuc/Cyclin Y in HEK-293; type: binding; conditions: CDK18/Y
[13] = biological target: CDK6/Cyclin D1 (Homo sapiens, UniProt Q00534); assay: NanoBRET live-cell target engagement, NanoLuc-CDK6/Cyclin D1 in HEK-293; type: binding; conditions: CDK6/D1; for IC50: read-out: IC50
[14] = biological target: CDK4/Cyclin D1 (Homo sapiens, UniProt P11802); assay: NanoBRET live-cell target engagement, NanoLuc-CDK4/Cyclin D1 in HEK-293; type: binding; conditions: CDK4/D1; for IC50: read-out: IC50
[15] = biological target: CDK5/CDK5R1 (Homo sapiens, UniProt Q00535); assay: NanoBRET live-cell target engagement, CDK5-NanoLuc/CDK5R1 in HEK-293; type: binding; conditions: CDK5/CDK5R1
[16] = biological target: CDK16/Cyclin Y (Homo sapiens, UniProt Q00536); assay: NanoBRET live-cell target engagement, CDK16-NanoLuc/Cyclin Y in HEK-293; type: binding; conditions: CDK16/Y
[17] = biological target: CDK19/Cyclin C (Homo sapiens, UniProt Q9BWU1); assay: NanoBRET live-cell target engagement, NanoLuc-CDK19/Cyclin C in HEK-293; conditions: CDK19/C
[18] = biological target: CDK1/Cyclin E1 (Homo sapiens, UniProt P06493); assay: NanoBRET live-cell target engagement, CDK1-NanoLuc/Cyclin E1 in HEK-293; type: binding; conditions: CDK1/E1
[19] = biological target: CDK2/Cyclin E1 (Homo sapiens, UniProt P24941); assay: NanoBRET live-cell target engagement, CDK2-NanoLuc/Cyclin E1 in HEK-293; type: binding; conditions: CDK2/E1

Sequence of CDK13/Cyclin K (O75909 whole entry): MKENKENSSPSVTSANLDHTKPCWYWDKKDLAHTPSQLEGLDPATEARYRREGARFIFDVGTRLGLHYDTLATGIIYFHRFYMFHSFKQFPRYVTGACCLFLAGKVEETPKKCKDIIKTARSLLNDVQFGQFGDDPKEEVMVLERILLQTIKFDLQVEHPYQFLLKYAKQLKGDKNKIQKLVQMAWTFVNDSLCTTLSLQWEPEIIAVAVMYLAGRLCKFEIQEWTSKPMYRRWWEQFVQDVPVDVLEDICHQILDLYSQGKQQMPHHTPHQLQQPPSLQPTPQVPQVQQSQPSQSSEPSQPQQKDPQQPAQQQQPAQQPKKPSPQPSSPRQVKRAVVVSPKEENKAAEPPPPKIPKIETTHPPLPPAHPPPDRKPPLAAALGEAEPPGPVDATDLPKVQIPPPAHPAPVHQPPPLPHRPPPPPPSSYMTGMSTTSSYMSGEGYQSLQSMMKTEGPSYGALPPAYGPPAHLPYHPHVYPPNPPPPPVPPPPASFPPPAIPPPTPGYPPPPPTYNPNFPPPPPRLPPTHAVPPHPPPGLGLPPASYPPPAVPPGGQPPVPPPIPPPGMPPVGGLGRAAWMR
Sequence of CDK13/Cyclin K (Q14004 other isoform, or with tags, fused parts or gaps): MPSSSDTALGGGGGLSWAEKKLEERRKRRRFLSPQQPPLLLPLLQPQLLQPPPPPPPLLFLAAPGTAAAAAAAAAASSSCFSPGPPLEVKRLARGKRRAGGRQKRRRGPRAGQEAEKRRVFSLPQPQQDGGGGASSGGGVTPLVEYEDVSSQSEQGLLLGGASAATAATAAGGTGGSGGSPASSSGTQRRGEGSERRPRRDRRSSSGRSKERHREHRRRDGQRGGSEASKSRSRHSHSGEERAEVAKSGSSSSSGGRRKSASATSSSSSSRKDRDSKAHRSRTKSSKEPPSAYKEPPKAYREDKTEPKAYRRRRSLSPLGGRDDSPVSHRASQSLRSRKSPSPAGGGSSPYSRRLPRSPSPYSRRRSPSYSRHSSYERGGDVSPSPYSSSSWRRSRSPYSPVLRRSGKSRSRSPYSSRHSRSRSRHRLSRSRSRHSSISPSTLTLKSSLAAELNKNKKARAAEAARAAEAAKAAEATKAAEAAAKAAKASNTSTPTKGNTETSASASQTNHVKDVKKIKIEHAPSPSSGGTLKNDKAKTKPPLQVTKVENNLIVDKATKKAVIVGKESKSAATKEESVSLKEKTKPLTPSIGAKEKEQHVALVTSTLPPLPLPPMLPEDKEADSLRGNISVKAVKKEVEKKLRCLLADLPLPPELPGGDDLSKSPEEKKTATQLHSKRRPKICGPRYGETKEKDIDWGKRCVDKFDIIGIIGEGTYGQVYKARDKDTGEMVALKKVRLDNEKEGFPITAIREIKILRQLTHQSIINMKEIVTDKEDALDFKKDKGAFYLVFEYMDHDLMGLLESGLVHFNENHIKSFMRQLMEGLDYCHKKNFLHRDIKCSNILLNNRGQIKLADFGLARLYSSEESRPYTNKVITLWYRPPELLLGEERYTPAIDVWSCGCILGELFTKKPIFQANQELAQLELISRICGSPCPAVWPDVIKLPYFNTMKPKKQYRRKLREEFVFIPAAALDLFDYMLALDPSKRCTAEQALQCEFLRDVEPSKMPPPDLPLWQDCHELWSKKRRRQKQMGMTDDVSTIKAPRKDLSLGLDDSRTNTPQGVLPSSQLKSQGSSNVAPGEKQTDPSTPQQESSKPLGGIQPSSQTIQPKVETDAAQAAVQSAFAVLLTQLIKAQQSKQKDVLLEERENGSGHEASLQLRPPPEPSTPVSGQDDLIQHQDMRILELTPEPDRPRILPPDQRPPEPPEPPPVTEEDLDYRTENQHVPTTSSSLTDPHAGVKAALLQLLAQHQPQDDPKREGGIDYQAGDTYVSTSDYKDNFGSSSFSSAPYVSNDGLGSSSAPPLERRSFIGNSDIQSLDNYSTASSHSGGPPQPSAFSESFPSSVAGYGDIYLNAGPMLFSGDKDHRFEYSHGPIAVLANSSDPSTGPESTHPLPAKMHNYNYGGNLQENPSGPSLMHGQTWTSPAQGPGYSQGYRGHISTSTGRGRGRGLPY
Sequence of CDK3/Cyclin E1 (Q00526 whole entry): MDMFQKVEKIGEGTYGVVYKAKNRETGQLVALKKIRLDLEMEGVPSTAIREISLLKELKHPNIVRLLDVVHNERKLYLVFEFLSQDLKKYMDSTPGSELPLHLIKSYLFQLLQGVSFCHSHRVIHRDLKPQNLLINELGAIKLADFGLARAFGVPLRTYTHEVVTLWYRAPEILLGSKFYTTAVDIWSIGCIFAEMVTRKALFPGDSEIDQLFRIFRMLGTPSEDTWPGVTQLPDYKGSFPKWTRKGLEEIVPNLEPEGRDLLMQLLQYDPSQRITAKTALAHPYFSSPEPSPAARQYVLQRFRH
Sequence of CDK3/Cyclin E1 (P24864 whole entry partner): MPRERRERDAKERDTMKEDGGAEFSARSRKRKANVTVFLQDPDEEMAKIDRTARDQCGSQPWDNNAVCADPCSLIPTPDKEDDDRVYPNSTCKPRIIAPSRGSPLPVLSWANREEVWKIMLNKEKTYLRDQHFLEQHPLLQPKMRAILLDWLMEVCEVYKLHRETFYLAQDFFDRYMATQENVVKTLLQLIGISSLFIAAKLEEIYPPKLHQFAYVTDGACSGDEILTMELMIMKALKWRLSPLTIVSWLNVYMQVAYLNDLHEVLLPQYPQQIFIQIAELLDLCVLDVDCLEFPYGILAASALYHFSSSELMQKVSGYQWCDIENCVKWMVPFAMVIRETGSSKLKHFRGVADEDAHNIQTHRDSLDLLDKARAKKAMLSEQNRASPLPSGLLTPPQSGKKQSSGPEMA
Sequence of CDK9/Cyclin K (P50750 whole entry): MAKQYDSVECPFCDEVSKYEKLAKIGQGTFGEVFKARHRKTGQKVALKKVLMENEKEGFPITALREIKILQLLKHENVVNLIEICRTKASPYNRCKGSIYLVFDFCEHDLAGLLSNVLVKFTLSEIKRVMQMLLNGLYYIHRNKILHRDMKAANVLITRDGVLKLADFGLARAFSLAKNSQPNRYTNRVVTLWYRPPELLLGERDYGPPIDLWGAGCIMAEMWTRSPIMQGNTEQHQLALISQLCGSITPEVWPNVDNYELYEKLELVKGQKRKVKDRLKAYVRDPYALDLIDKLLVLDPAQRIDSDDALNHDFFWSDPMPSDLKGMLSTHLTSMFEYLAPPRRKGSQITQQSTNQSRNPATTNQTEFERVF
Sequence of CDK9/Cyclin K (O75909 whole entry partner): as the sequence (O75909 whole entry) above
Sequence of CDK5/CDK5R1 (Q00535 whole entry): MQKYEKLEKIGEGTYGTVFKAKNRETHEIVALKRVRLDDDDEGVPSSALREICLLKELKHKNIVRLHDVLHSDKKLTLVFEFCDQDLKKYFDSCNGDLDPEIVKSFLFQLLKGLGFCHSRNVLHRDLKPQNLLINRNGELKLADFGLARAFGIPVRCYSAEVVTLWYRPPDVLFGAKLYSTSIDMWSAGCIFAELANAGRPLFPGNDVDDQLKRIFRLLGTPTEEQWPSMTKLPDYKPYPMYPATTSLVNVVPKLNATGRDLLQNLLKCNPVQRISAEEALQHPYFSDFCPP
Sequence of CDK5/CDK5R1 (Q15078 whole entry partner): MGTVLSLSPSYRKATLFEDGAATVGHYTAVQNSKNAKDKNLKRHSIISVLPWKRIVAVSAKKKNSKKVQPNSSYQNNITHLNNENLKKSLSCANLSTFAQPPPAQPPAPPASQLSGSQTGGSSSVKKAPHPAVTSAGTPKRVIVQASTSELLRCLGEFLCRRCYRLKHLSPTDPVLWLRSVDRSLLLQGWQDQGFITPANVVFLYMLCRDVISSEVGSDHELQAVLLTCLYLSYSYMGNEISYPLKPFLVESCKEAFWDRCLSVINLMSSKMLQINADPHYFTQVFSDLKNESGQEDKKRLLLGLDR
Sequence of CDK8/Cyclin C (P49336 whole entry): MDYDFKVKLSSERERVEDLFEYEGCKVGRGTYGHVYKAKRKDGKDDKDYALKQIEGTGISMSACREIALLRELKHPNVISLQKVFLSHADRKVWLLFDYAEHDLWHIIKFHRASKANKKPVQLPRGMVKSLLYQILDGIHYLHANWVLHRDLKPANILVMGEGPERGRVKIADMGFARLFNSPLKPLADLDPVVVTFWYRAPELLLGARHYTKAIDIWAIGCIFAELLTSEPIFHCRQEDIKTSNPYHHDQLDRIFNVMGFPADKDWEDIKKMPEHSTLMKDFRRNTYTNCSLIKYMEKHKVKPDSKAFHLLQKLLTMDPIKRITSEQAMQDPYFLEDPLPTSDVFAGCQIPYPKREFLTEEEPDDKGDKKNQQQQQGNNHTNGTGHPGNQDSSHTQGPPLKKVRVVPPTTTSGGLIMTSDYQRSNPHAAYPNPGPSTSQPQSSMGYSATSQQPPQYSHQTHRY
Sequence of CDK8/Cyclin C (P24863 whole entry partner): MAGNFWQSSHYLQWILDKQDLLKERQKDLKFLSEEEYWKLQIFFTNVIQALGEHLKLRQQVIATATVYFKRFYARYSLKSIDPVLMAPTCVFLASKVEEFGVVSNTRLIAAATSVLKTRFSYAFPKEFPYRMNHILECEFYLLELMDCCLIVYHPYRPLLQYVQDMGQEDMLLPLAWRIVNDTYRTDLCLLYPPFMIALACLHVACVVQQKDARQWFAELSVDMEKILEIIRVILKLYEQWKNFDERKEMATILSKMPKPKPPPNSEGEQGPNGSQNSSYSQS
Sequence of CDK1/Cyclin E1 (P06493 whole entry): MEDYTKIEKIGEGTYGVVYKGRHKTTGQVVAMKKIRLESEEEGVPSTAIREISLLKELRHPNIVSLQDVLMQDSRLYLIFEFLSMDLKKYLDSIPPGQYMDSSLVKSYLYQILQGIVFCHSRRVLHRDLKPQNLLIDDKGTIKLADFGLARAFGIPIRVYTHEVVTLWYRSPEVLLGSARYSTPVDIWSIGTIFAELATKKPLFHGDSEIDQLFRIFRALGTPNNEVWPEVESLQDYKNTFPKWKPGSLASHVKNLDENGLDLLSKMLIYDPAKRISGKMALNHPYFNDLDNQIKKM
Sequence of CDK1/Cyclin E1 (P24864 whole entry partner): as the sequence (P24864 whole entry partner) above

Inhibition at 10µM (%) ([1]; average): 34.1%
Inhibition at 10µM (%) ([1]; experiment 1): 43.4%
Inhibition at 10µM (%) ([1]; experiment 2): 24.8%
Inhibition at 10µM (%) ([2]; average): 96.7%
Inhibition at 10µM (%) ([2]; experiment 1): 94.9%
Inhibition at 10µM (%) ([2]; experiment 2): 98.4%
Inhibition at 10µM (%) ([3]; average): 58.5%
Inhibition at 10µM (%) ([3]; experiment 1): 56.7%
Inhibition at 10µM (%) ([3]; experiment 2): 60.4%
Inhibition at 10µM (%) ([4]; average): 79.0%
Inhibition at 10µM (%) ([4]; experiment 1): 82.7%
Inhibition at 10µM (%) ([4]; experiment 2): 75.3%
Inhibition at 10µM (%) ([5]; average): 71.1%
Inhibition at 10µM (%) ([5]; experiment 1): 75.5%
Inhibition at 10µM (%) ([5]; experiment 2): 66.7%
Inhibition at 10µM (%) ([6]; average): 51.8%
Inhibition at 10µM (%) ([6]; experiment 1): 52.6%
Inhibition at 10µM (%) ([6]; experiment 2): 51.0%
Inhibition at 10µM (%) ([7]; average): 32.2%
Inhibition at 10µM (%) ([7]; experiment 1): 38.1%
Inhibition at 10µM (%) ([7]; experiment 2): 26.2%
Inhibition at 10µM (%) ([8]; average): 28.5%
Inhibition at 10µM (%) ([8]; experiment 1): 33.3%
Inhibition at 10µM (%) ([8]; experiment 2): 23.7%
Inhibition at 10µM (%) ([9]; experiment 1): -0.6%
Inhibition at 10µM (%) ([9]; experiment 2): -6.9%
Inhibition at 10µM (%) ([10]; average): 3.3%
Inhibition at 10µM (%) ([10]; experiment 1): 2.5%
Inhibition at 10µM (%) ([10]; experiment 2): 4.1%
Inhibition at 10µM (%) ([11]; average): 11.2%
Inhibition at 10µM (%) ([11]; experiment 1): 12.5%
Inhibition at 10µM (%) ([11]; experiment 2): 9.8%
Inhibition at 10µM (%) ([12]; average): 57.3%
Inhibition at 10µM (%) ([12]; experiment 1): 55.4%
Inhibition at 10µM (%) ([12]; experiment 2): 59.3%
Inhibition at 10µM (%) ([13]; average): 83.0%
IC50 ([13]; average (± SEM where n=3)): 500 ± 100 nM
Inhibition at 10µM (%) ([13]; experiment 1): 78.3%
IC50 ([13]; experiment 1): 550 nM
Inhibition at 10µM (%) ([13]; experiment 2): 87.7%
IC50 ([13]; experiment 2): 220 nM
IC50 ([13]; experiment 3): 659 nM
Inhibition at 10µM (%) ([14]; average): 80.8%
IC50 ([14]; average (± SEM where n=3)): 400 ± 100 nM
Inhibition at 10µM (%) ([14]; experiment 1): 79.0%
IC50 ([14]; experiment 1): 690 nM
Inhibition at 10µM (%) ([14]; experiment 2): 82.6%
IC50 ([14]; experiment 2): 200 nM
IC50 ([14]; experiment 3): 301 nM
Inhibition at 10µM (%) ([15]; average): 26.1%
Inhibition at 10µM (%) ([15]; experiment 1): 31.1%
Inhibition at 10µM (%) ([15]; experiment 2): 21.1%
Inhibition at 10µM (%) ([16]; experiment 1): 61.8%
Inhibition at 10µM (%) ([16]; experiment 2): 61.2%
Inhibition at 10µM (%) ([17]; average): 72.1%
Inhibition at 10µM (%) ([17]; experiment 1): 76.3%
Inhibition at 10µM (%) ([17]; experiment 2): 67.9%
Inhibition at 10µM (%) ([18]; average): 41.0%
Inhibition at 10µM (%) ([18]; experiment 1): 45.9%
Inhibition at 10µM (%) ([18]; experiment 2): 36.2%
Inhibition at 10µM (%) ([19]; average): 22.7%
Inhibition at 10µM (%) ([19]; experiment 1): 16.7%
Inhibition at 10µM (%) ([19]; experiment 2): 28.7%
Compound: CN1CCC(c2c(O)cc(O)c3c(=O)cc(-c4ccccc4Cl)oc23)C1CO (stereo not drawn) [P276-00]
